Laboratory results as given in the kinase profiling compilation of Christmann-Franck et al. (2016).

Assays:
Experiment in all cases: radiometric filter-binding kinase assay, Kinase HotSpot
Settings in all cases: compound 0.5 µM; ATP 10 µM
PTK6 (human) = PTK6 (human) (UniProt Q13882)
SYK (human) = SYK (human) (UniProt P43405)
ACVR1 (human) = ACVR1 (human) (UniProt Q04771)
BMX (human) = BMX (human) (UniProt P51813)
PNCK (human) = PNCK (human) (UniProt Q6P2M8)
FRK (human) = FRK (human) (UniProt P42685)
MAP3K10 (human) = MAP3K10 (human) (UniProt Q02779)
DYRK4 (human) = DYRK4 (human) (UniProt Q9NR20)
CAMKK1 (human) = CAMKK1 (human) (UniProt Q8N5S9)
FGFR3 (human) = FGFR3 (human) (UniProt P22607)
NUAK1 (human) = NUAK1 (human) (UniProt O60285)
LIMK1 (human) = LIMK1 (human) (UniProt P53667)
BLK (human) = BLK (human) (UniProt P51451)
GRK6 (human) = GRK6 (human) (UniProt P43250)
MINK1 (human) = MINK1 (human) (UniProt Q8N4C8)
DCLK2 (human) = DCLK2 (human) (UniProt Q8N568)
CDK2 CCNE1 (human) = CDK2 CCNE1 (human) (UniProt P24941+P24864)
MAPKAPK2 (human) = MAPKAPK2 (human) (UniProt P49137)
CAMKK2 (human) = CAMKK2 (human) (UniProt Q96RR4)
KDR (human) = KDR (human) (UniProt P35968)
EPHA2 (human) = EPHA2 (human) (UniProt P29317)
EPHA2 (human), sequence (P29317 whole entry, looked up): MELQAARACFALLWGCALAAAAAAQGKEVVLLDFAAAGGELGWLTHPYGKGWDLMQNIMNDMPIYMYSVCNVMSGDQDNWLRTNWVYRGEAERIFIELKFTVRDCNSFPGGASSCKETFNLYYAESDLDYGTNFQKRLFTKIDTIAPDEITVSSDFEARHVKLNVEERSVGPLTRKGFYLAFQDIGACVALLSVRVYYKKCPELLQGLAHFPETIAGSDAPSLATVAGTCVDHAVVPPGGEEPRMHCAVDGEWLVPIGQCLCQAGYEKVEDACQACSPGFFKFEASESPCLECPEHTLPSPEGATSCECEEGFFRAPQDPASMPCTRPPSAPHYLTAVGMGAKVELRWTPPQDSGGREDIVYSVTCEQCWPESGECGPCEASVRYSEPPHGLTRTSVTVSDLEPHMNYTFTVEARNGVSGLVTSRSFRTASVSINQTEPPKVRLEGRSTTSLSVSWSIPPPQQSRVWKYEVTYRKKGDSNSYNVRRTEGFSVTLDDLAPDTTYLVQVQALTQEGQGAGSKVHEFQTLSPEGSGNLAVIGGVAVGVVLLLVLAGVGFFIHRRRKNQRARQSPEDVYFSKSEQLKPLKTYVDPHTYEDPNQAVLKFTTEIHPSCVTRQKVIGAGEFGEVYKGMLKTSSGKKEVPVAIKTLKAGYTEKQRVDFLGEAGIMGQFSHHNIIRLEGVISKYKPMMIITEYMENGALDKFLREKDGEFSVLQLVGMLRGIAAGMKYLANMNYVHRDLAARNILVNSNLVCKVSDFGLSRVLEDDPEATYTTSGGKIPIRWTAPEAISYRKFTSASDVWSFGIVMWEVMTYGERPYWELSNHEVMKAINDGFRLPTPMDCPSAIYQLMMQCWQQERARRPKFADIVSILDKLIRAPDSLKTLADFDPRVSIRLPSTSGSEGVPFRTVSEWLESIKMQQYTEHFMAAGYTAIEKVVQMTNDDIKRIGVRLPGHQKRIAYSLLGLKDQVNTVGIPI

TGFBR2 (human) = TGFBR2 (human) (UniProt P37173)
TGFBR2 (human), sequence (P37173 whole entry, looked up): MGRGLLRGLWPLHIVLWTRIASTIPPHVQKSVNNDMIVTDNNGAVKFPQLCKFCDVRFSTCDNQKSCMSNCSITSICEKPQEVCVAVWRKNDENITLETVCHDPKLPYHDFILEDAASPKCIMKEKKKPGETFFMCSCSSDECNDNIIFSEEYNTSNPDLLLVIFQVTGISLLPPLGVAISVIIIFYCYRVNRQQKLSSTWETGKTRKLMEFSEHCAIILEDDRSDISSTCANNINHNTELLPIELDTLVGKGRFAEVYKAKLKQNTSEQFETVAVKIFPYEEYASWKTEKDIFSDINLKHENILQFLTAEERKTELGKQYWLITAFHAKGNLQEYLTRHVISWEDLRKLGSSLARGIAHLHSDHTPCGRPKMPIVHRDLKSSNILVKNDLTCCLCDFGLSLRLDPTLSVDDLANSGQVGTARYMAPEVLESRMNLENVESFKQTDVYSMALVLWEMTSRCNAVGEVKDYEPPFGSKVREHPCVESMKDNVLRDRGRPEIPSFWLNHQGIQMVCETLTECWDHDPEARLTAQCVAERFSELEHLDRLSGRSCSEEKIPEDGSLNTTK

MARK4 (human) = MARK4 (human) (UniProt Q96L34)
MARK4 (human), sequence (Q96L34 whole entry, looked up): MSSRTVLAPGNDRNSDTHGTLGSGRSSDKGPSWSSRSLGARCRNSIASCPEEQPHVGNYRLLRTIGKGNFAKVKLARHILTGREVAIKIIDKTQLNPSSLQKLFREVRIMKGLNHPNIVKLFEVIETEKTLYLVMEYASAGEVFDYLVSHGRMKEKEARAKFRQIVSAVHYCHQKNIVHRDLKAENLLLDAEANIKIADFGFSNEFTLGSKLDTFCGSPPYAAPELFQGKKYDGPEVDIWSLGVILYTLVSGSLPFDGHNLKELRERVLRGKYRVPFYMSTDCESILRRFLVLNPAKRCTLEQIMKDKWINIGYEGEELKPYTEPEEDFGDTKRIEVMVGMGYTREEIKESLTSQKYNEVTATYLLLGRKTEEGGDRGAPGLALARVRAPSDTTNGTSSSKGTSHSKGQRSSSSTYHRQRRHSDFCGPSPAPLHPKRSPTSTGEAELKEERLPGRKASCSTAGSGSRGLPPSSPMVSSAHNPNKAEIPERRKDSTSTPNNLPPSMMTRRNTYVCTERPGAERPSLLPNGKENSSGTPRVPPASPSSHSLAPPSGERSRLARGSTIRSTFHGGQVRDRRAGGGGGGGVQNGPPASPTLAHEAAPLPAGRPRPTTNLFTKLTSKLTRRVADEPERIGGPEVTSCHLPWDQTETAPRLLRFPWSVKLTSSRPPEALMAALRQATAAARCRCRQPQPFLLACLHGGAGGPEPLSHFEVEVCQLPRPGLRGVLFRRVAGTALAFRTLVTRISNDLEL

WNK2 (human) = WNK2 (human) (UniProt Q9Y3S1)
NTRK2 (human) = NTRK2 (human) (UniProt Q16620)
NTRK2 (human), sequence (Q16620 whole entry, looked up): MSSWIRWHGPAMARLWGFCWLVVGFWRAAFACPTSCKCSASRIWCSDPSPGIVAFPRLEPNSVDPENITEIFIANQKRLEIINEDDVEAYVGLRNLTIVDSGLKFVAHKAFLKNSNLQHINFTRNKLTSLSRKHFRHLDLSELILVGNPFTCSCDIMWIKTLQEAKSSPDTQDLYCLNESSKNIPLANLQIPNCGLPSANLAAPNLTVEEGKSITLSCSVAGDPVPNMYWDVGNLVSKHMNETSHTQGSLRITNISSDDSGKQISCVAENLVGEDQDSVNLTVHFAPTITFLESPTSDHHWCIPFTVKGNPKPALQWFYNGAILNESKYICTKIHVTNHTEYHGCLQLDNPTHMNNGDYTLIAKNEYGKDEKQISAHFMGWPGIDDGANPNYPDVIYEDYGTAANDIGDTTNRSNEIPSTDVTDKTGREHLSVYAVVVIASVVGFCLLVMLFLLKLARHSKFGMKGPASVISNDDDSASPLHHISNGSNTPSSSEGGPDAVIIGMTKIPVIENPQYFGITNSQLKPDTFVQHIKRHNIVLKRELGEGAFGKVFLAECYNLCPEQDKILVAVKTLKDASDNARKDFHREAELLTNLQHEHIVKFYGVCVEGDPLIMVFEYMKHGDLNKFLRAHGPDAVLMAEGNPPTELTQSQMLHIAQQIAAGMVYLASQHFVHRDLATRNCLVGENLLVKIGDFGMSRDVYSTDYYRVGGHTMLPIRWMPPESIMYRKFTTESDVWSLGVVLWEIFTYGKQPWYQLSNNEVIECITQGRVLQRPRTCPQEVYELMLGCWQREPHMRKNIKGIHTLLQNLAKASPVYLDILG

PRKD1 (human) = PRKD1 (human) (UniProt Q15139)
AURKB (human) = AURKB (human) (UniProt Q96GD4)
WNK3 (human) = WNK3 (human) (UniProt Q9BYP7)
INSR (human) = INSR (human) (UniProt P06213)
PAK4 (human) = PAK4 (human) (UniProt O96013)
BRSK2 (human) = BRSK2 (human) (UniProt Q8IWQ3)
PRKCI (human) = PRKCI (human) (UniProt P41743)
PRKCI (human), sequence (P41743 whole entry, looked up): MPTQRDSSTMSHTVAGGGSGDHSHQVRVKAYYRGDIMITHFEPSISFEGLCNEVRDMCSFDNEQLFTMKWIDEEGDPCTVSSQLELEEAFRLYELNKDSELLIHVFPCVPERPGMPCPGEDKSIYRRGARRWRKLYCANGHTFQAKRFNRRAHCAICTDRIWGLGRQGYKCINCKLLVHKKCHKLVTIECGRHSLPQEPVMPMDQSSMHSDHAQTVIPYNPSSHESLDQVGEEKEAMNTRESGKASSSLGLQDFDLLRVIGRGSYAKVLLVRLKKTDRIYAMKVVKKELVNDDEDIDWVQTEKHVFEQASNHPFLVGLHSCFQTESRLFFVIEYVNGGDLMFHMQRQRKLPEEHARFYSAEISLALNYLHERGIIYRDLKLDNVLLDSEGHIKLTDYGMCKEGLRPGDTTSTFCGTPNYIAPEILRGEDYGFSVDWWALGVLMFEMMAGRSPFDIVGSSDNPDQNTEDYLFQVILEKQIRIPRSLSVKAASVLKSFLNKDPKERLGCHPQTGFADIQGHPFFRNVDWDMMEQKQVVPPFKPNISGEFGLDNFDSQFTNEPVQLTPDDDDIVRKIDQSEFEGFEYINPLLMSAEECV

EPHA3 (human) = EPHA3 (human) (UniProt P29320)
PAK6 (human) = PAK6 (human) (UniProt Q9NQU5)
MERTK (human) = MERTK (human) (UniProt Q12866)
CLK1 (human) = CLK1 (human) (UniProt P49759)
PIM3 (human) = PIM3 (human) (UniProt Q86V86)
EPHA4 (human) = EPHA4 (human) (UniProt P54764)
RPS6KA3 KD1 KD2 (human) = RPS6KA3 KD1 KD2 (human) (UniProt P51812)
FLT3 (human) = FLT3 (human) (UniProt P36888)
FLT3 (human), sequence (P36888 whole entry, looked up): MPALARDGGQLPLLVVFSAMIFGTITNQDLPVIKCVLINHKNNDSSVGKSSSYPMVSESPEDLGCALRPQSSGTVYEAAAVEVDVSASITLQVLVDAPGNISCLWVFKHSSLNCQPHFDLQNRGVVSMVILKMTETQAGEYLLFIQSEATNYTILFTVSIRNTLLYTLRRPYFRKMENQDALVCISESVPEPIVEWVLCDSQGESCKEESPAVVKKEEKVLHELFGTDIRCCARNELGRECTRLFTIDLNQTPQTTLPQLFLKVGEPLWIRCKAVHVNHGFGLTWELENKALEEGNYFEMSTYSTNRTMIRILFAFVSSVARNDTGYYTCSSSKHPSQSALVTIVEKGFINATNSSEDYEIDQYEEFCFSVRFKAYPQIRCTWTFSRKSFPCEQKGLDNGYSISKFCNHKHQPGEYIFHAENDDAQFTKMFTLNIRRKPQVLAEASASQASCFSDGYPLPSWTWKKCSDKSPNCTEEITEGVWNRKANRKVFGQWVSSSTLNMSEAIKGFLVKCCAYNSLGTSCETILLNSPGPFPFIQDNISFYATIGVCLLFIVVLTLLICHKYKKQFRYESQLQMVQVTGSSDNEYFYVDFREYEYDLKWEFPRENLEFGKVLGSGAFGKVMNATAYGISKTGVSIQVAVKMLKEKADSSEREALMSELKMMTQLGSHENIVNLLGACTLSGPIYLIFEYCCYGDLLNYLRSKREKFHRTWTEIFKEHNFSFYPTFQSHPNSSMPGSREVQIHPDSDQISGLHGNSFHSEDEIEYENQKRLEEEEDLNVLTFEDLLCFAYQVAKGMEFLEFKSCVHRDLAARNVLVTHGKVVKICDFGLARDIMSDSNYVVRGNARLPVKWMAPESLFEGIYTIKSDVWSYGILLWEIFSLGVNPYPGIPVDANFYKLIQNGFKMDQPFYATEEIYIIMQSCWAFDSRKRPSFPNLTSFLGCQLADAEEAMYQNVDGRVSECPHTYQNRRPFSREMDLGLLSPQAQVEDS

DYRK1A (human) = DYRK1A (human) (UniProt Q13627)
EPHB1 (human) = EPHB1 (human) (UniProt P54762)

PNCK (human), sequence (Q6P2M8 whole entry, looked up): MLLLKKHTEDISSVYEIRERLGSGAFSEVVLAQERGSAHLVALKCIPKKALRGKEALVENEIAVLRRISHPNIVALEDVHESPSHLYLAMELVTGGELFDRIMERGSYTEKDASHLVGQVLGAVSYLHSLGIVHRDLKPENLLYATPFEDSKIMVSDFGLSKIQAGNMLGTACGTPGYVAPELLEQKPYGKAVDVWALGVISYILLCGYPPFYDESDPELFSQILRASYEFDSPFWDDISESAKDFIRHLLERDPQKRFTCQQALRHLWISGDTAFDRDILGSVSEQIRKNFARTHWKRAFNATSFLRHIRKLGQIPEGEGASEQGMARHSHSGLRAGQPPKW

`Cn1cnc2cc3c(Nc4cccc(Br)c4)ncnc3cc21` was tested, and the residual activity (PTK6 (human)) was 54%, the residual activity (SYK (human)) was 98.5% and the residual activity (ACVR1 (human)) was 109%. For the same compound, the residual activity (BMX (human)) was 96.6%, the residual activity (PNCK (human)) was 101% and the residual activity (FRK (human)) was 93.6%. It also gave a residual activity (MAP3K10 (human)) of 94%, a residual activity (DYRK4 (human)) of 97.5% and a residual activity (CAMKK1 (human)) of 107%. The residual activity (FGFR3 (human)) was 98.6%, the residual activity (NUAK1 (human)) was 90.5% and the residual activity (LIMK1 (human)) was 99%. The residual activity (BLK (human)) was 81%, the residual activity (GRK6 (human)) was 107% and the residual activity (MINK1 (human)) was 82.1%. It also gave a residual activity (DCLK2 (human)) of 92.9%, a residual activity (CDK2 CCNE1 (human)) of 78.2% and a residual activity (MAPKAPK2 (human)) of 104%. It also gave a residual activity (CAMKK2 (human)) of 99.6%, a residual activity (KDR (human)) of 71.7% and a residual activity (EPHA2 (human)) of 81.8%. The residual activity (TGFBR2 (human)) was 98.9%, the residual activity (MARK4 (human)) was 105% and the residual activity (WNK2 (human)) was 89.7%. The residual activity (NTRK2 (human)) was 98.9%, the residual activity (PRKD1 (human)) was 99.4% and the residual activity (AURKB (human)) was 78.2%. It also gave a residual activity (WNK3 (human)) of 95.8%, a residual activity (INSR (human)) of 94.4% and a residual activity (PAK4 (human)) of 105%. It also gave a residual activity (BRSK2 (human)) of 88.6%, a residual activity (PRKCI (human)) of 100% and a residual activity (EPHA3 (human)) of 82.9%. It also gave a residual activity (PAK6 (human)) of 95%, a residual activity (MERTK (human)) of 77.5% and a residual activity (CLK1 (human)) of 102%. The residual activity (PIM3 (human)) was 104%, the residual activity (EPHA4 (human)) was 80.7% and the residual activity (RPS6KA3 KD1 KD2 (human)) was 105%. For the same compound, the residual activity (FLT3 (human)) was 33.4%, the residual activity (DYRK1A (human)) was 106% and the residual activity (EPHB1 (human)) was 72.2%.

`Cc1nc2cc3nc(-c4cccs4)cnc3cc2n1C` gave a residual activity (PTK6 (human)) of 88.6%, a residual activity (SYK (human)) of 94.3% and a residual activity (ACVR1 (human)) of 99.3%. The residual activity (BMX (human)) was 117%, the residual activity (PNCK (human)) was 102% and the residual activity (FRK (human)) was 98.9%. For the same compound, the residual activity (MAP3K10 (human)) was 101%, the residual activity (DYRK4 (human)) was 104% and the residual activity (CAMKK1 (human)) was 127%. For the same compound, the residual activity (FGFR3 (human)) was 67.1%, the residual activity (NUAK1 (human)) was 95.3% and the residual activity (LIMK1 (human)) was 112%. The residual activity (BLK (human)) was 99.8%, the residual activity (GRK6 (human)) was 104% and the residual activity (MINK1 (human)) was 98.9%. It also gave a residual activity (DCLK2 (human)) of 104%, a residual activity (CDK2 CCNE1 (human)) of 91.4% and a residual activity (MAPKAPK2 (human)) of 95.4%. The residual activity (CAMKK2 (human)) was 112%, the residual activity (KDR (human)) was 77.4% and the residual activity (EPHA2 (human)) was 107%. It also gave a residual activity (TGFBR2 (human)) of 89.2%, a residual activity (MARK4 (human)) of 105% and a residual activity (WNK2 (human)) of 123%. For the same compound, the residual activity (NTRK2 (human)) was 64.7%, the residual activity (PRKD1 (human)) was 97.7% and the residual activity (AURKB (human)) was 84.9%. The residual activity (WNK3 (human)) was 96.9%, the residual activity (INSR (human)) was 99.9% and the residual activity (PAK4 (human)) was 126%. It also gave a residual activity (BRSK2 (human)) of 98%, a residual activity (PRKCI (human)) of 99.1% and a residual activity (EPHA3 (human)) of 102%. It also gave a residual activity (PAK6 (human)) of 96.6%, a residual activity (MERTK (human)) of 90.4% and a residual activity (CLK1 (human)) of 111%. It also gave a residual activity (PIM3 (human)) of 91.2%, a residual activity (EPHA4 (human)) of 93.1% and a residual activity (RPS6KA3 KD1 KD2 (human)) of 96.3%. It also gave a residual activity (FLT3 (human)) of 27.5%, a residual activity (DYRK1A (human)) of 99.9% and a residual activity (EPHB1 (human)) of 107%.

For `CC(C)[C@H](CO)Nc1nc(Nc2cc(N)cc(Cl)c2)c2ncn(C(C)C)c2n1`, the residual activity (PTK6 (human)) was 85.6%, the residual activity (SYK (human)) was 81.1% and the residual activity (ACVR1 (human)) was 99.4%. It also gave a residual activity (BMX (human)) of 81.9%, a residual activity (PNCK (human)) of 132% and a residual activity (FRK (human)) of 70.3%. The residual activity (MAP3K10 (human)) was 95.1%, the residual activity (DYRK4 (human)) was 91.6% and the residual activity (CAMKK1 (human)) was 86.8%. For the same compound, the residual activity (FGFR3 (human)) was 79.4%, the residual activity (NUAK1 (human)) was 61.5% and the residual activity (LIMK1 (human)) was 107%. The residual activity (BLK (human)) was 79.6%, the residual activity (GRK6 (human)) was 72.1% and the residual activity (MINK1 (human)) was 94.5%. For the same compound, the residual activity (DCLK2 (human)) was 105%, the residual activity (MAPKAPK2 (human)) was 92.8% and the residual activity (CAMKK2 (human)) was 33.2%. The residual activity (KDR (human)) was 101%, the residual activity (EPHA2 (human)) was 67.5% and the residual activity (TGFBR2 (human)) was 93.5%. The residual activity (MARK4 (human)) was 71.2%, the residual activity (WNK2 (human)) was 112% and the residual activity (NTRK2 (human)) was 3.04%. For the same compound, the residual activity (PRKD1 (human)) was 94.2%, the residual activity (AURKB (human)) was 87.8% and the residual activity (WNK3 (human)) was 76.9%. For the same compound, the residual activity (INSR (human)) was 85%, the residual activity (PAK4 (human)) was 102% and the residual activity (BRSK2 (human)) was 88.2%. For the same compound, the residual activity (PRKCI (human)) was 89.6%, the residual activity (EPHA3 (human)) was 86.6% and the residual activity (PAK6 (human)) was 57.3%. The residual activity (MERTK (human)) was 79.7%, the residual activity (CLK1 (human)) was 51.9% and the residual activity (PIM3 (human)) was 93%. For the same compound, the residual activity (EPHA4 (human)) was 61.4%, the residual activity (RPS6KA3 KD1 KD2 (human)) was 54.1% and the residual activity (FLT3 (human)) was 8.35%. For the same compound, the residual activity (DYRK1A (human)) was 57.1% and the residual activity (EPHB1 (human)) was 59.2%.

For `O=C1NC(=O)C(c2cn(CCCO)c3ncccc23)=C1c1cnccn1`, the residual activity (PTK6 (human)) was 101%, the residual activity (SYK (human)) was 60% and the residual activity (ACVR1 (human)) was 97%. For the same compound, the residual activity (BMX (human)) was 97.8%, the residual activity (PNCK (human)) was 94.9% and the residual activity (FRK (human)) was 88.3%. It also gave a residual activity (MAP3K10 (human)) of 91.3%, a residual activity (DYRK4 (human)) of 98.4% and a residual activity (CAMKK1 (human)) of 107%. It also gave a residual activity (FGFR3 (human)) of 78.7%, a residual activity (NUAK1 (human)) of 59.4% and a residual activity (LIMK1 (human)) of 96.4%. For the same compound, the residual activity (BLK (human)) was 87.1%, the residual activity (GRK6 (human)) was 102% and the residual activity (MINK1 (human)) was 84.8%. For the same compound, the residual activity (DCLK2 (human)) was 90.1%, the residual activity (CDK2 CCNE1 (human)) was 85.1% and the residual activity (MAPKAPK2 (human)) was 91%. For the same compound, the residual activity (CAMKK2 (human)) was 115%, the residual activity (KDR (human)) was 82.1% and the residual activity (EPHA2 (human)) was 105%. The residual activity (TGFBR2 (human)) was 122%, the residual activity (MARK4 (human)) was 93.9% and the residual activity (WNK2 (human)) was 104%. It also gave a residual activity (NTRK2 (human)) of 99.7%, a residual activity (PRKD1 (human)) of 107% and a residual activity (AURKB (human)) of 101%. The residual activity (WNK3 (human)) was 91.3%, the residual activity (INSR (human)) was 92.9% and the residual activity (PAK4 (human)) was 111%. The residual activity (BRSK2 (human)) was 90.4%, the residual activity (PRKCI (human)) was 87% and the residual activity (EPHA3 (human)) was 102%. For the same compound, the residual activity (PAK6 (human)) was 78.2%, the residual activity (MERTK (human)) was 78.7% and the residual activity (CLK1 (human)) was 88.5%. For the same compound, the residual activity (PIM3 (human)) was 16.7%, the residual activity (EPHA4 (human)) was 99.5% and the residual activity (RPS6KA3 KD1 KD2 (human)) was 91.3%. The residual activity (FLT3 (human)) was 87.8% and the residual activity (DYRK1A (human)) was 108%.
